According to patent US20260083687A1, “COMPOUNDS FOR REDUCING LACTATION AND IMPROVING HEALTH” (AHV International B.V., priority 2022, published 2026):
Like-named read-outs stand apart in the source and are kept apart here.

Columns and labels:
[1] = test system: cows (Holstein Friesians); experiment: Treatment with DPD analogs (organosulfur compounds) and milk yield (Example 8); type: in vivo, cow
Procedure: Study design. 36 cows (Holstein Friesians) from 2 farms were used. The feed of the cows was composed of TMR, including corn and grass silage, supplemented with soya and minerals. […] The cows were milked in a milk robot. […] The cows were milked twice a day. The cows were housed in free stables. […] Placebo treatment corresponded to administration of two gel capsules containing 180 ml water.
For this study dosages synthetic compounds (>96% purity) as indicated in table 17 were administered to cows. The objective of this study was to compare the activity of a corresponding dose of the compounds expressed in mol, based on the number of moles that is present in 80 ml di-n-propyl disulfide at 20° C. The number of moles was converted to ml or grams of the tested compounds. For this purpose, the molecular weight and specific density were used in the calculations. The compounds were formulated in the gel capsules as indicated in the previous examples.
Before the various dosages were administered, the milk yields were monitored for at least 5 days.

[2] = test system: cows (Holstein Friesians); settings: for Milk yield Last milking: before administration; for % reduction after 24 h / % reduction after 48 h / % reduction after 72 h / % reduction after 96 h: vs milk yield before treatment
Procedure: Twelve cows (Holstein Friesians) from 1 farm were used. The start of the dry period of every cow was between 40 to 60 days before calving. The cows were milked twice a day at fixed times and the cows were selected on a milk production of >12.5 litres/day 24 hours before PTSO administering took place. No extra measures were taken to stimulate dry-off, such as changes in feed ration or changes in milking frequency. The cows were milked twice a day. The cows were housed in free stables. A porcine gelatine capsule with PTSO or placebo gel capsule with water were administered 7 to 14 days before the start of the dry-off period.
For this study various dosages synthetic PTSO (>98% purity) were administered to cows with a milk yield of at least 12.5 kg milk per day. The following dosages were applied: 0, 10, 20, 40 ml of pure PTSO. For each dosage 3 cows were used.
Before the various dosages were administered the milk yield was monitored for 14 days. The gel capsules were orally administered by a bolus shooter, the gel capsule for the placebo group contained tap water. Administering of a capsule took place between the morning and afternoon milking. On t=14 days the PTSO-containing capsules and the placebo capsules were administered and the milk yield was monitored 48 hours more.

goats = settings: single injection 5.6 mg at dry-off; cited from earlier work
dairy cows = settings: single injection 5.6 mg at dry-off, cited from earlier work
cows = settings: cited from earlier work
[3] = individual cows, dose per compound as listed in E284
[4] = vs milk yield before treatment, individual cows, dose per compound as listed in E284

## CCCSS(=O)(=O)CCC [PTSO, di-n-propyl thiosulfonate]
[1]; 24 h after one oral gel capsule, dose equimolar to 80 ml di-n-propyl disulfide, negative value = increase in yield
  % reduction after 24 h average (milk yield): 61%
[1]; 48 h after one oral gel capsule, dose equimolar to 80 ml di-n-propyl disulfide, negative value = increase in yield
  % reduction after 48 h average (milk yield): 71%
[1]; 72 h after one oral gel capsule, dose equimolar to 80 ml di-n-propyl disulfide, negative value = increase in yield
  % reduction after 72 h average (milk yield): 41%
[1]; 96 h after one oral gel capsule, dose equimolar to 80 ml di-n-propyl disulfide, negative value = increase in yield
  % reduction after 96 h average (milk yield): 4.7%
[1]; average of 24, 48 and 72 h after one oral gel capsule, dose equimolar to 80 ml di-n-propyl disulfide
  average reduction after 24, 48 and 72 h (%) (milk yield): 58%
[1]; average of 24 and 48 h after one oral gel capsule, dose equimolar to 80 ml di-n-propyl disulfide
  Average reduction after 24 and 48 h (%) (milk yield): 66%
[1]; before administration, individual cows, single oral gel capsule dose per cow (ml unless g): diethyl disulfide 63, di-n-propyl disulfide 80, diisopropyl disulfide 160, di-n-butyl disulfide 100, dibenzyl disulfide 102, diethyl sulfide 55, di-n-propyl sulfide 72, diisopropyl sulfide 74, di-n-butyl sulfide 90, dibenzyl sulfide 96 g, diphenyl sulfide 85, di-n-propyl trisulfide 98, di-n-propyl sulfone 6
  Milk yield (kg) Last milking: 15.7 kg
[1]; [3]
  Average reduction after 24 and 48 h (%): 66%
  Milk yield (kg) After 24 h: 7.7 kg
  Milk yield (kg) After 48 h: 4.6 kg
  Milk yield (kg) After 72 h: 9.3 kg
  Milk yield (kg) After 96 h: 14.5 kg
  average reduction after 24, 48 and 72 h (%): 58%
[1]; [4]
  % reduction after 24 h: 61%
  % reduction after 48 h: 71%
  % reduction after 72 h: 41%
  % reduction after 96 h: 4.7%
[2]; 10 ml PTSO
  Average reduction 24 and 48 h (%): −5%
  Milk yield After 24 h: 19.89 kg
  Milk yield After 48 h: 19.51 kg
  Milk yield After 72 h: 18.94 kg
  Milk yield After 96 h: 18.67 kg
  Milk yield Last milking: 18.76 kg
  % reduction after 24 h: −6%
  % reduction after 48 h: −4%
  % reduction after 72 h: −0.03%
  % reduction after 96 h: 0.01%
[2]; 20 ml PTSO
  Average reduction 24 and 48 h (%): 66%
  Milk yield After 24 h: 7.7 kg
  Milk yield After 48 h: 4.56 kg
  Milk yield After 72 h: 9.31 kg
  Milk yield After 96 h: 14.99 kg
  effect on milk yield compared to the milk yield before treatment: clear lowering on milk yield
  Milk yield Last milking: 15.72 kg
  % reduction after 24 h: 61%
  % reduction after 48 h: 71%
  % reduction after 72 h: 41%
  % reduction after 96 h: 4.7%
[2]; 40 ml PTSO
  Average reduction 24 and 48 h (%): 55%
  Milk yield After 24 h: 8.89 kg
  Milk yield After 48 h: 7.04 kg
  Milk yield After 72 h: 9.06 kg
  Milk yield After 96 h: 15.87 kg
  Milk yield Last milking: 16.77 kg
  % reduction after 24 h: 52%
  % reduction after 48 h: 58%
  % reduction after 72 h: 46%
  % reduction after 96 h: 5.4%
[2]; after PTSO administration
  time to complete recovery of milk yield: 3 to 4 days
[2]; bovine, in vivo
  damage to the udder: does not cause any damage to the udder
[2]; single oral dose
  dosage at which the effect on milk yield became visible: ≥ 20 mL
  dosage giving maximum response (milk yield decrease): ≥ 20 mL

## C=CCN1C[C@H](C(=O)N(CCCN(C)C)C(=O)NCC)C[C@@H]2c3cccc4[nH]cc(c34)C[C@H]21 [cabergoline]
goats
  milk reduction: 28%
Dairy cows
  duration of reduced prolactin after dry-off: up to 8 days
Dairy cows; dairy cows
  milk reduction: 22%

## CCCN1CC(NS(=O)(=O)N(CC)CC)CC2Cc3c(O)cccc3CC21 (stereo not shown) [quinagolide]
cows; 1 mg daily i.m. during 9 weeks, early lactation, last 4 weeks of treatment
  lower milk production compared with the placebo group: 5.3 kg/day
cows; 4 mg i.m. twice a day from 5 days before until 13 days after dry-off, placebo 25 kg/day
  Milk production: 18 kg/day
cows; Ollier, Zhao and Lacasse (2014)
  decreased milk production compared with the placebo group: 7 L
